The values below come from patent US20210040116A1, “New Polymorphs of Dolutegravir Sodium” (CIPLA LIMITED, priority 2017, published 2021).

Series [1] in a line: Comparative intrinsic dissolution. It is filed as physicochemical. As to conditions: 0.01M pH 6.8 phosphate buffer containing 0.25% w/v SDS, 37° C., 50 rpm. An excerpt:
The following data illustrates the dissolution of the crystalline form of dolutegravir sodium disclosed in WO2010068253 (i.e. not the hydrate), compared to crystalline Form 1A of the present invention (i.e. crystalline Form 1A of dolutegravir sodium).
Dissolution medium: 0.01M pH 6.8 phosphate buffer containing 0.25% w/v sodium dodecyl sulfate (SDS)
FIG. 5 is a graphical comparison of the intrinsic dissolution of the solid crystalline Form 1A of dolutegravir sodium of the present invention and the crystalline form of dolutegravir sodium disclosed in WO2010068253. The solid line represents the dissolution of solid crystalline Form 1A of dolutegravir sodium of the present invention, with the dotted line representing the dissolution of the crystalline form of dolutegravir sodium disclosed in WO2010068253.

Series [2] is described as follows: Bulk density and tapped density (USP <616> method I). It is filed as physicochemical. From the text:
Suitable methods for determining the bulk density and tapped density of the crystalline form 1A of dolutegravir sodium of the present invention and the crystalline form of dolutegravir sodium form disclosed in WO2010068253 will be well known to the skilled chemist. For example, USP <616> method I may be used.

Structures are written as SMILES.

Consider `C[C@@H]1CCO[C@H]2Cn3cc(C(=O)NCc4ccc(F)cc4F)c(=O)c([O-])c3C(=O)N12.[Na+]` [crystalline form of dolutegravir sodium disclosed in WO20100] [sodium (4R,12aS)-9-{[(2,4,-difluorophenyl)methyl]carbamoyl}-4-methyl-6,8-dioxo-3,4,6,8,12,12a-hexahydro-2H-pyrido[1′,2′:4,5]pyrazino[2,1-b][1,3]oxazin-7-olate], for which the “% Release” value stood at 5% in series [1] (5 minutes); 13% in series [1] (15 minutes); 20% in series [1] (30 minutes); 56% in series [1] (60 minutes); 68% in series [1] (120 minutes); 74% in series [1] (240 minutes). Moreover, the “% Release” value in series [1] (360 minutes) came to 72%; in series [1] (480 minutes), 73%; in series [1] (600 minutes), 73%; in series [1] (720 minutes), 74%. In addition, the bulk density in series [2] is 0.2 to 0.3 g/mL.

Turning to `C[C@@H]1CCO[C@H]2Cn3cc(C(=O)NCc4ccc(F)cc4F)c(=O)c([O-])c3C(=O)N12.[Na+]` [Form 1A, sodium (4R,12aS)-9-{[(2,4,-difluorophenyl)methyl]carbamoyl}-4-methyl-6,8-dioxo-3,4,6,8,12,12a-hexahydro-2H-pyrido[1′,2′:4,5]pyrazino[2,1-b][1,3]oxazin-7-olate], the “% Release” value in series [1] (5 minutes) worked out at 26%; in series [1] (15 minutes), 45%; in series [1] (30 minutes) it was 73%; in series [1] (60 minutes) it was 66%; in series [1] (120 minutes), 79%; in series [1] (240 minutes), 82%. In addition, the “% Release” value in series [1] (360 minutes) was 81%; in series [1] (480 minutes), 85%; in series [1] (600 minutes), 86%; in series [1] (720 minutes), 82%. The tapped density in series [2] fell in the range of 0.7 to 0.8 g/mL.
